US10940139B2, “Compounds that interact with the Ras superfamily for the treatment of cancers, inflammatory diseases, rasopathies, and fibrotic disease” (Shy Therapeutics LLC, priority 2017, dated 2021)

These molecules were tested on MIA-PACA2 pancreatic cancer cell lines (assay: Cell proliferation assay (CellTiter 96 AQueous One)). Conditions: Homo sapiens, MIA PaCa-2; MIA-PACA2, same assay as the % inhibition (standard conditions).
Assay type: cell-based

SMILES	IC50 [nM]
CN(C)Cc1ccc(-c2csc3c(O)nc(-c4ccccn4)nc23)cc1F [drawing 1721]	100 to 500
CC(C)(C)c1ccc(-c2csc3c(O)nc(-c4ccccn4)nc23)cc1 [drawing 1723]	100 to 500
Oc1nc(-c2ccccn2)nc2c(-c3cc(Cl)cc(Cl)c3)csc12 [drawing 1724]	100 to 500
Oc1nc(-c2ccccn2)nc2c(-c3cccc4c3OCO4)csc12 [drawing 1725]	100 to 500

Same assay, conditions: Homo sapiens, MIA PaCa-2; at 30 μM, MIA-PACA2

SMILES	inhibition at 30 µM [%]
COCCCCNC(=O)c1csc2nc(-c3ccccn3)nc(N(CCOC)CCOC)c12 [drawing 1686]	76 to 100
CC(C(=O)Nc1ccnc(-c2ccccn2)n1)c1ccc(C#N)cc1 (stereo not drawn) [drawing 1687]	76 to 100
COc1ccc2c(c1)CCC2C(=O)Nc1ccnc(-c2ccccn2)n1 (stereo not drawn) [drawing 1688]	76 to 100
N#Cc1ccc(COCC(=O)Nc2ccnc(-c3ccccn3)n2)cc1 [drawing 1689]	76 to 100
Cc1cnc(-c2ccccn2)nc1NC(=O)C(C)c1ccc(C#N)cc1 (stereo not drawn) [drawing 1690]	76 to 100
CC(C(=O)Nc1nc(-c2ccccn2)nc2sccc12)c1ccc(C#N)cc1 (stereo not drawn) [drawing 1691]	76 to 100
N#Cc1ccc(COCC(=O)Nc2nc(-c3ccccn3)nc3sccc23)cc1 [drawing 1692]	76 to 100
COc1ccnc(-c2nc(O)c3c(Cl)csc3n2)c1 [drawing 1693]	76 to 100
COc1ccc(N2CCN(C(=O)c3csc4c(O)nc(-c5ccccn5)nc34)CC2)cc1O [drawing 1695]	76 to 100
O=C(c1csc2c(O)nc(-c3ccccn3)nc12)N1CCN(c2ccc(O)c(Cl)c2)CC1 [drawing 1696]	76 to 100
CC(c1ccccc1)N1CCN(C(=O)c2csc3c(O)nc(-c4ccccn4)nc23)CC1 (stereo not drawn) [drawing 1697]	76 to 100
O=C(c1csc2c(O)nc(-c3ccccn3)nc12)N1CCOC(CN2CCOCC2)C1 (stereo not drawn) [drawing 1698]	51 to 75
O=C(c1csc2c(O)nc(-c3ccccn3)nc12)N1CCNC(c2ccccc2Cl)C1 (stereo not drawn) [drawing 1699]	76 to 100
O=C(c1csc2c(O)nc(-c3ccccn3)nc12)N1CCNC(c2ccc(F)cc2)C1 (stereo not drawn) [drawing 1700]	76 to 100
O=C(c1csc2c(O)nc(-c3ccccn3)nc12)N1CCNC(c2ccc(O)cc2)C1 (stereo not drawn) [drawing 1701]	76 to 100
COCCCCNC(=O)c1csc2nc(-c3ccccn3)nc(N3CCS(=O)(=O)CC3)c12 [drawing 1702]	1 to 25
Cc1cnc(-c2ccccn2)nc1NC(=O)C1CCCc2cc(C#N)ccc21 (stereo not drawn) [drawing 1703]	76 to 100
O=C(COCc1ccncc1)Nc1nc(-c2ccccn2)nc2sccc12 [drawing 1704]	76 to 100
O=C(COCc1cccnc1)Nc1nc(-c2ccccn2)nc2sccc12 [drawing 1705]	76 to 100
COc1cccc(CC2CN(C(=O)c3csc4c(O)nc(-c5ccccn5)nc34)CCN2)c1 (stereo not drawn) [drawing 1706]	1 to 25
O=C(c1csc2c(O)nc(-c3ccccn3)nc12)N1CCNC(Cc2ccc(F)cc2)C1 (stereo not drawn) [drawing 1707]	51 to 75

SMILES	inhibition at 30 µM [%]
O=C(c1csc2c(O)nc(-c3ccccn3)nc12)N1CCNC(Cc2cccc(F)c2)C1 (stereo not drawn) [drawing 1708]	25 to 50
COc1ccnc(-c2nc(O)c3c(C(F)(F)F)csc3n2)c1 [drawing 1709]	76 to 100
Nc1nc(-c2ccccn2)nc2ccsc12 [drawing 1710]	1 to 25
Nc1nc(-c2ccccn2)nc2c(-c3ccccc3Cl)csc12 [drawing 1711]	76 to 100
Cc1cc2nc(-c3ccccn3)nc(N)c2s1 [drawing 1712]	76 to 100
Cc1sc2c(N)nc(-c3ccccn3)nc2c1-c1ccccc1 [drawing 1713]	76 to 100
O=C(c1csc2c(O)nc(-c3ccccn3)nc12)N1CC2CC1CN2c1ccccc1 (stereo not drawn) [drawing 1714]	76 to 100
O=C(c1csc2c(O)nc(-c3ccccn3)nc12)N1CCC(c2ccncc2)C1 (stereo not drawn) [drawing 1715]	76 to 100
O=C(c1csc2c(O)nc(-c3ccccn3)nc12)N1CCC(c2cccc(O)c2)C1 (stereo not drawn) [drawing 1716]	76 to 100
O=C(c1cc2nc(-c3ccccn3)nc(O)c2s1)N1CCN(c2ccccc2)CC1 [drawing 1717]	76 to 100
O=C(c1cc2nc(-c3ccccn3)nc(O)c2s1)N1CCOC(c2ccccc2)C1 (stereo not drawn) [drawing 1718]	76 to 100
O=C(NCCc1cccnc1)c1cc2nc(-c3ccccn3)nc(O)c2s1 [drawing 1719]	76 to 100
Cc1ccc(OC2CCCC2)c(-c2csc3c(O)nc(-c4ccccn4)nc23)c1 [drawing 1720]	76 to 100
CN(C)Cc1ccc(-c2csc3c(O)nc(-c4ccccn4)nc23)cc1F [drawing 1721]	76 to 100
CC(C)(C)c1ccc(-c2csc3c(O)nc(-c4ccccn4)nc23)cc1 [drawing 1723]	76 to 100
Oc1nc(-c2ccccn2)nc2c(-c3cc(Cl)cc(Cl)c3)csc12 [drawing 1724]	76 to 100
Oc1nc(-c2ccccn2)nc2c(-c3cccc4c3OCO4)csc12 [drawing 1725]	76 to 100
O=C(O)c1cc2nc(-c3ccccn3)nc(O)c2s1 [drawing 1726]	51 to 75
Oc1nc(-c2ccccn2)nc2sc3c(c12)CCNC3 [drawing 1727]	76 to 100
Oc1nc(-c2ccccn2)nc2sc3c(c12)CCCNC3 [drawing 1728]	25 to 50
COc1ccc(CCNC(=O)c2csc3nc(-c4ccccn4)nc(N4CCS(=O)(=O)CC4)c23)cn1 [drawing 1729]	51 to 75

SMILES	inhibition at 30 µM [%]
O=C(NCCc1cnc(O)nc1)c1csc2nc(-c3ccccn3)nc(N3CCS(=O)(=O)CC3)c12 [drawing 1730]	1 to 25
N#Cc1ccc2c(c1)CCCC2C(=O)Nc1ccnc(-c2ccccn2)n1 (stereo not drawn) [drawing 1731]	76 to 100
Cc1cnc(-c2ccccn2)nc1NC(=O)Cc1ccc2cnccc2c1 [drawing 1732]	76 to 100
O=C(COCc1ccnc(O)c1)Nc1nc(-c2ccccn2)nc2sccc12 [drawing 1733]	51 to 75
O=C(c1csc2c(O)nc(-c3ccccn3)nc12)N1CCNC(c2cn[nH]c2)C1 (stereo not drawn) [drawing 1734]	1 to 25
Nc1nc(-c2ccccn2)nc2c(-c3ccccc3)csc12 [drawing 1735]	76 to 100
Oc1nc(-c2ccccn2)nc2c(-c3cc(F)ccc3OC(F)F)csc12 [drawing 1736]	76 to 100
Cn1nnc2ccc(-c3csc4c(O)nc(-c5ccccn5)nc34)cc21 [drawing 1737]	76 to 100
Oc1nc(-c2ccccn2)nc2c(-c3ccc(OC4CCOC4)cc3)csc12 (stereo not drawn) [drawing 1738]	76 to 100
Oc1nc(-c2ccccn2)nc2c(-c3ccc(OC4CCCC4)cc3)csc12 [drawing 1739]	76 to 100
O=S1(=O)CCN(Cc2cccc(-c3csc4c(O)nc(-c5ccccn5)nc34)c2)CC1 [drawing 1740]	76 to 100
Oc1nc(-c2ccccn2)nc2c(-c3ccc(C4CCC4)cc3)csc12 [drawing 1741]	76 to 100
Oc1nc(-c2ccccn2)nc2c(-c3ccccc3OC3CCCCC3)csc12 [drawing 1742]	76 to 100
Oc1nc(-c2ccccn2)nc2c(-c3ccc(OC4CCOCC4)cc3)csc12 [drawing 1743]	76 to 100
Oc1nc(-c2ccccn2)nc2c(-c3ccccc3F)csc12 [drawing 1744]	76 to 100
COc1cc(C)c(-c2csc3c(O)nc(-c4ccccn4)nc23)cc1C [drawing 1745]	76 to 100
COc1ccccc1-c1csc2c(O)nc(-c3ccccn3)nc12 [drawing 1746]	76 to 100
Oc1nc(-c2ccccn2)nc2c(-c3ccc(F)cc3F)csc12 [drawing 1747]	76 to 100
COc1cccc(-c2csc3c(O)nc(-c4ccccn4)nc23)c1 [drawing 1748]	76 to 100
COc1ccc(F)cc1-c1csc2c(O)nc(-c3ccccn3)nc12 [drawing 1750]	76 to 100
Oc1nc(-c2ccccn2)nc2c(-c3ccsc3)csc12 [drawing 1751]	76 to 100

SMILES	inhibition at 30 µM [%]
Oc1nc(-c2ccccn2)nc2c(-c3ccc(OC(F)F)cc3F)csc12 [drawing 1752]	76 to 100
Cc1cc(OC(F)F)ccc1-c1csc2c(O)nc(-c3ccccn3)nc12 [drawing 1754]	76 to 100
Oc1nc(-c2ccccn2)nc2c(-c3ccc4c(c3)OCO4)csc12 [drawing 1755]	76 to 100
CC(C)(O)c1ccc(-c2csc3c(O)nc(-c4ccccn4)nc23)c(F)c1 [drawing 1756]	76 to 100
COc1ccc(-c2csc3c(O)nc(-c4ccccn4)nc23)c(C)c1 [drawing 1757]	76 to 100
Oc1nc(-c2ccccn2)nc2c(-c3ccc(CN4CCOCC4)cc3)csc12 [drawing 1758]	76 to 100
Oc1nc(-c2ccccn2)nc2c(-c3ccccc3C(F)F)csc12 [drawing 1759]	76 to 100
COc1cc(-c2csc3c(O)nc(-c4ccccn4)nc23)cnc1C(F)(F)F [drawing 1760]	76 to 100
CNC(=O)c1ccc(-c2csc3c(O)nc(-c4ccccn4)nc23)cc1C [drawing 1761]	76 to 100
OCC1(c2ccc(-c3csc4c(O)nc(-c5ccccn5)nc34)cc2)CC1 [drawing 1762]	76 to 100
Oc1nc(-c2ccccn2)nc2c(-c3ccc(OC4CCCCC4)cc3)csc12 [drawing 1763]	76 to 100
Cc1cnccc1-c1csc2c(O)nc(-c3ccccn3)nc12 [drawing 1764]	76 to 100
O=C(CCc1nn[nH]n1)Nc1nc(-c2ccccn2)nc2sccc12 [drawing 1766]	51 to 75
O=C(CCc1cncnc1)Nc1nc(-c2ccccn2)nc2sccc12 [drawing 1767]	76 to 100
Nc1nc(-c2ccccn2)nc2c(Br)csc12 [drawing 1768]	25 to 50
Cc1sc2c(N)nc(-c3ccccn3)nc2c1Br [drawing 1769]	76 to 100
Nc1nc(-c2ccccn2)nc2scc(Br)c12 [drawing 1770]	1 to 25
COC(=O)c1csc2nc(-c3ccccn3)nc(N)c12 [drawing 1771]	76 to 100
COc1nccc(CCNC(=O)c2csc3nc(-c4ccccn4)nc(N4CCOCC4)c23)n1 [drawing 1773]	76 to 100
O=C(NCCc1ccnc(O)n1)c1csc2nc(-c3ccccn3)nc(N3CCOCC3)c12 [drawing 1774]	1 to 25
